Assay results as given in PMC10578352, “Identification of a Protein Arginine Methyltransferase 7 (PRMT7)/Protein Arginine Methyltransferase 9 (PRMT9) Inhibitor” (Journal of Medicinal Chemistry, 2023).

Columns and labels:
GST-HsPRMT7 = biological target: T1, GST-HsPRMT7 (Homo sapiens, UniProt Q9NVM4); test: Radioisotope-based assay (SDS-PAGE, fluorography, densitometry), HsPRMT7; format: biochemical; conditions: substrate HsH2B, 15 °C, read-out: % HsPRMT7 residual activity
T1 construct: made in house; host or cells: E. coli
T1 sequence (Q9NVM4 1-692): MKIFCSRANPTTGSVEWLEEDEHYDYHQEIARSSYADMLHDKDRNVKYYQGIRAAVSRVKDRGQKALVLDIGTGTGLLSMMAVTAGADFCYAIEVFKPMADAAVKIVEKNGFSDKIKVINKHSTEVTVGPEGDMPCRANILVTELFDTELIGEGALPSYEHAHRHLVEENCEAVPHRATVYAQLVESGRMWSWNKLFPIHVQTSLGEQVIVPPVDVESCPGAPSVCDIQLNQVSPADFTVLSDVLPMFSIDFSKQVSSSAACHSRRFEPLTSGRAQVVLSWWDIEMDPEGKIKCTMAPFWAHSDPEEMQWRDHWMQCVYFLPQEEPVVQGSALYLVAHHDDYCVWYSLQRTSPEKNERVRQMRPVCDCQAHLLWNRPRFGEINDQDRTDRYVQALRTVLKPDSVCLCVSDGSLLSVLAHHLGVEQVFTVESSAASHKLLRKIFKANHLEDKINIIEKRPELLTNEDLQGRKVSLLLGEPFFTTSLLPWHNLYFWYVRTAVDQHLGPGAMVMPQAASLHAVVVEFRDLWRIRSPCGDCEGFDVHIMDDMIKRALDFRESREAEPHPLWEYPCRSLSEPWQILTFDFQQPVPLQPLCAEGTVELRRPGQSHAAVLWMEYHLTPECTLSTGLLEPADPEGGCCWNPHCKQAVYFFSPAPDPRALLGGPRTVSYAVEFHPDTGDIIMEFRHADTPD
Description: (§1) Based on these outcomes, we resolved to explore the effect on the capability to inhibit PRMT9 enzymatic activity of further reduction of the distance between the pharmacophoric moieties. […] After the experiment was repeated with 100, 250, and 500 μM concentrations of each inhibitor, half inhibition was observed only at a concentration of roughly 250 μM (Figure 4d).
(§2) […]. The experiments were performed as reported in the Experimental procedures section. GST-HsPRMT9 (a) and GST-HsPRMT7 (b) were incubated with human GST-SF3B2 (401–550) peptide or recombinant HsH2B, respectively (1 μg of enzyme, 5 μg of substrate), 0.14 μM [^3H]SAM, and the indicated concentrations of tested compounds at the corresponding optimal reaction temperature (37 °C for HsPRMT9, 15 °C for HsPRMT7). C. elegans GST-tagged enzymes PRMT9 (c) and PRMT7 (d) were incubated with GST-CeSFTB-2 (99–248) fragment or recombinant HsH2B, respectively (1 μg of enzyme, 5 μg of substrate), 0.14 μM [^3H]SAM, and the indicated concentrations of tested compounds at the corresponding optimal reaction temperature (25 °C for CePRMT9, 15 °C for CePRMT7). After SDS-PAGE, the gels were treated as previously described[48] and densitometry analysis was done using ImageJ software, and data was plotted as normalized activity to the no inhibitor controls.
(§3) Human PRMT9, C. elegans PRMT9, human PRMT7, and C. elegans PRMT7 plasmids were sequenced, expressed in E. coli as GST-fusion proteins, and purified as previously described.[48] Substrates were also sequenced and purified as described [human GST-SF3B2 (401–550);[13]C. elegans SFTB-2;[48] human histone H2B (New England Biolabs, M2505S)]. Xenopus laevis histone H2B was expressed in E. coli and purified similarly to what was previously reported by Luger et al.[72]
(§4) Reactions consisting of approximately 1 μg of enzyme (human or C. elegans GST-tagged enzymes PRMT9 and PRMT7), reacted with approximately 5 μg of substrate [for human PRMT9, human GST-SF3B2 401–550 fragment; C. elegans PRMT9 with C. elegans GST-SFTB-2 (99–248) fragment, or recombinant human histone H2B from New England Biolabs (M2505S)], were incubated for the indicated time in reaction buffer {50 mM potassium HEPES buffer, 10 mM NaCl, 1 mM dithiothreitol (DTT), pH 8.0 with 0.7 μM S-adenosyl-L-[methyl-^3H]methionine (^3H-AdoMet, PerkinElmer Life Sciences, 82.7 Ci/mmol, 0.55 mCi/mL in 10 mM H2SO4/EtOH [9:1 (v/v)])} in a final reaction volume of 60 μL. Each reaction was incubated at the corresponding optimal reaction temperature (37 °C for human PRMT9, 25 °C for C. elegans PRMT9, and 15 °C for C. elegans and human PRMT7 enzymes. MTA was dissolved in water, and a wavelength scan was taken to determine the final concentration using the extinction coefficient. The final concentrations used are indicated in the figure legends. […]. EML734, EML736, and EML709 were also dissolved in DMSO, and further dilutions were made in DMSO for the working stocks. For controls, no inhibitor reactions were created by the addition of the respective solvent (water for MTA and DMSO for EPZ015666 and EML inhibitors).
After the reaction incubations with the various concentrations of inhibitors, the reactions were quenched by adding 0.2 volume of 5× SDS sample loading buffer, and subsequently, the reactions were run on a 12.6% polyacrylamide Tris gel. To collect the radioactive signal, the gels were then treated in the same way as previously described.[48] […]

CePRMT7 = biological target: T2, CePRMT7 (Caenorhabditis elegans, UniProt Q9XW42); test: Radioisotope-based assay (SDS-PAGE, fluorography, densitometry), CePRMT7; format: biochemical; conditions: substrate HsH2B, 15 °C, read-out: % CePRMT7 residual activity
T2 construct: made in house; host or cells: E. coli
Description: as §1, §2, §3, §4
After the reaction incubations with the various concentrations of inhibitors, the reactions were quenched by adding 0.2 volume of 5× SDS sample loading buffer, and subsequently, the reactions were run on a 12.6% polyacrylamide Tris gel. To collect the radioactive signal, the gels were then treated in the same way as previously described.[48]
After various exposures were collected to ensure linear detection, densitometry analysis was done using ImageJ software, and data were plotted as normalized activity to the no inhibitor controls.

T2 sequence (Q9XW42 whole entry): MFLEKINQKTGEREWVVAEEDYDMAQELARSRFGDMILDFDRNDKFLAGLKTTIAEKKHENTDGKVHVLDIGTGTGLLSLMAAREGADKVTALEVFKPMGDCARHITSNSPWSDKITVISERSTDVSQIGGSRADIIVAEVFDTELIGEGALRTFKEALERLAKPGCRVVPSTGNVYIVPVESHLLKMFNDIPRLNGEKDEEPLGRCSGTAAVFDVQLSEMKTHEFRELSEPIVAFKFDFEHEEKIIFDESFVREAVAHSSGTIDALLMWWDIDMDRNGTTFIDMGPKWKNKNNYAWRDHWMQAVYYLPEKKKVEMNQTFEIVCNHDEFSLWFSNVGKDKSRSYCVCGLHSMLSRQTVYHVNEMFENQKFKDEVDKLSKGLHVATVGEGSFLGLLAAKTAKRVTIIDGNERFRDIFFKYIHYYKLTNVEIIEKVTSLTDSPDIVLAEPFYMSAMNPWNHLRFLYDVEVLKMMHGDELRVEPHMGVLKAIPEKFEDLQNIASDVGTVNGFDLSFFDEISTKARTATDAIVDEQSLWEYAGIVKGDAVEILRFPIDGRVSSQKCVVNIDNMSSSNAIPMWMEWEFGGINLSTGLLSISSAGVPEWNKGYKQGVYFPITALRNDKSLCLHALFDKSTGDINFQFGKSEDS

SMILES	remaining activity at 100 µM (GST-HsPRMT7)	remaining activity at 100 µM (CePRMT7)	remaining activity at 250 µM (CePRMT7)	remaining activity at 500 µM (CePRMT7)
COC(=O)c1cc(O)c2cc(NC(=O)NCCCNC(=N)NC[C@H]3O[C@@H](n4cnc5c(N)ncnc54)[C@H](O)[C@@H]3O)ccc2c1 [1a]	0.5%	19.6%	12.5%	0.92%
COC(=O)c1cc(O)c2cc(NC(=O)NCCCCNC(=N)NC[C@H]3O[C@@H](n4cnc5c(N)ncnc54)[C@H](O)[C@@H]3O)ccc2c1 [1b]	8.27%	34.8%	8.62%	5.19%
COC(=O)c1cc(O)c2cc(NC(=O)NCCCCCNC(=N)NC[C@H]3O[C@@H](n4cnc5c(N)ncnc54)[C@H](O)[C@@H]3O)ccc2c1 [1c]	0.03%	26.1%	6.92%	2.32%
